Assay results published in patent publication US5210193A, “Piperazine derivatives” (American Cyanamid Company, priority 1990, dated 1993).
≈ marks a conversion by molar mass, not a printed value. Where “and” joins values, the source holds several entries; their conditions need not be identical. Identical values can stand only once. Like-named read-outs stand apart in the source and are kept apart here.

Key:
Experiment in all cases: in vitro antibacterial MIC, agar plate dilution
Type in all cases: cell-based
[1] = tested on: Staphylococcus aureus VGH 84-45; details: 35° C.
Procedure, shortened: (§1)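 Minimal inhibitory concentrations came from agar plate dilution in Mueller-Hinton medium. Each organism was delivered at roughly 10^4 CFU by Steers replicator. Plates were read for visible growth after 18 hours at 35° C, values in mcg/ml.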

[2] = tested on: Escherichia coli VGH 84-19; details: 35° C.
Procedure, shortened: as §1

[3] = tested on: Morganella morganii CMC 84-38; details: 35° C.
Procedure, shortened: as §1

[4] = tested on: Pseudomonas aeruginosa LL-1244; details: 35° C.
Procedure, shortened: as §1

[5] = tested on: Pseudomonas aeruginosa CMC 83-20; details: 35° C.
Procedure, shortened: as §1

[6] = tested on: Staphylococcus aureus Smith; details: 35° C.
Procedure, shortened: as §1

[7] = tested on: Klebsiella pneumoniae MOR 84-24; details: 35° C.
Procedure, shortened: as §1

[8] = tested on: Proteus rettgeri CMC 84-41; details: Providencia rettgeri, CMC8441, 18 h, 35° C., read-out: MIC
Procedure, shortened: as §1

[9] = tested on: Enterobacter cloacae K 84-10; details: 35° C.
Procedure, shortened: as §1

[10] = tested on: Klebsiella pneumoniae CMC 84-31; details: 35° C.
Procedure, shortened: as §1

[11] = tested on: Morganella morganii CMC 84-37; details: 35° C.
Procedure, shortened: as §1

[12] = tested on: Escherichia coli LL 311; details: Escherichia coli, LL311, 18 h, 35° C., read-out: MIC
Procedure, shortened: as §1

[13] = tested on: Staphylococcus aureus K 82-26; details: 35° C.
Procedure, shortened: as §1

[14] = tested on: Serratia marcescens MOR 84-41; details: 35° C.
Procedure, shortened: as §1

[15] = tested on: Proteus rettgeri IO 83-21; details: 35° C.
Procedure, shortened: as §1

[16] = tested on: Enterobacter cloacae VGH 84-39; details: 35° C.
Procedure, shortened: as §1

[17] = tested on: Pseudomonas aeruginosa K 84-16; details: 35° C.
Procedure, shortened: as §1

[18] = tested on: Serratia marcescens CMC 83-74; details: 35° C.
Procedure, shortened: as §1

[19] = tested on: Citrobacter div. K 82-24; details: 35° C.
Procedure, shortened: as §1

[20] = tested on: Escherichia coli MOR 84-20; details: 35° C.
Procedure, shortened: as §1

[21] = tested on: Providencia stuarti CMC 83-3; details: 35° C.
Procedure, shortened: as §1

[22] = tested on: Serratia marcescens VGH 84-30; details: Serratia marcescens, VGH8430, 18 h, 35° C., read-out: MIC
Procedure, shortened: as §1

[23] = tested on: Streptococcus faecalis UCI 85-19; details: 35° C.
Procedure, shortened: as §1

[24] = tested on: Serratia marcescens K 84-18; details: 35° C.
Procedure, shortened: as §1

[25] = tested on: Morganella morganii MOR 84-45; details: 35° C.
Procedure, shortened: as §1

[26] = tested on: Streptococcus faecalis UCI 85-30; details: 35° C.
Procedure, shortened: as §1

[27] = tested on: Streptococcus faecalis VGH 84-69; details: 35° C.
Procedure, shortened: as §1

[28] = tested on: Klebsiella pneumoniae IO 83-5; details: 35° C.
Procedure, shortened: as §1

[29] = tested on: Pseudomonas aeruginosa VGH 84-3; details: 35° C.
Procedure, shortened: as §1

[30] = tested on: Escherichia coli CMC 84-50; details: 35° C.
Procedure, shortened: as §1

[31] = tested on: Morganella morganii VHG 84-12; details: Morganella morganii VHG 84-12 (VGH 84-12 for Example 131), 35° C.
Procedure, shortened: as §1

[32] = tested on: Streptococcus faecalis CMC 83-120; details: 35° C.
Procedure, shortened: as §1

[33] = tested on: Enterobacter cloacae MOR 84-30; details: 35° C.
Procedure, shortened: as §1

[34] = tested on: Staphylococcus aureus VGH 84-47; details: 35° C.
Procedure, shortened: as §1

[35] = tested on: Pseudomonas aeruginosa VGH 84-4; details: 35° C.
Procedure, shortened: as §1

[36] = tested on: Streptococcus faecalis VGH 84-65; details: 35° C.
Procedure, shortened: as §1

[37] = tested on: Staphylococcus aureus CMC 83-131; details: 35° C.
Procedure, shortened: as §1

[38] = tested on: Escherichia coli CMC 84-11; details: Escherichia coli, CMC8411, 18 h, 35° C., read-out: MIC
Procedure, shortened: as §1

[39] = tested on: Escherichia coli ATCC 25922; details: 18 hours, 35° C.
Procedure, shortened: as §1

Work on O=C(O)c1cn(C2CC2)c2cc(N3CCNC(C4CC4)C3)c(F)cc2c1=O (centres unmarked) [Example 124, 1-Cyclopropyl-7-(3-cvclopropyl-1-piperazinyl)-6-fluoro-1,4-dihydro-4-oxo-3-quinolinecarboxvlic acid,] yielded an MIC ([1]; 18 hours) of 0.06 µg/mL (≈ 0.162 µM), an MIC ([2]; 18 hours) of 0.015 µg/mL (≈ 0.0404 µM) and an MIC ([3]; 18 hours) of 0.03 µg/mL (≈ 0.0808 µM). For the same compound, the MIC ([4]; 18 hours) was 4 µg/mL (≈ 10.8 µM), the MIC ([5]; 18 hours) was 4 µg/mL (≈ 10.8 µM) and the MIC ([6]; 18 hours) was 0.06 µg/mL (≈ 0.162 µM). It also gave an MIC ([7]; 18 hours) of 0.06 µg/mL (≈ 0.162 µM), an MIC [8] of 0.06 µg/mL (≈ 0.162 µM) and an MIC ([9]; 18 hours) of 0.015 µg/mL (≈ 0.0404 µM). It also gave an MIC ([10]; 18 hours) of 0.03 µg/mL (≈ 0.0808 µM), an MIC ([11]; 18 hours) of 0.06 µg/mL (≈ 0.162 µM) and an MIC [12] of 0.03 µg/mL (≈ 0.0808 µM). It also gave an MIC ([13]; 18 hours) of 1 µg/mL (≈ 2.69 µM), an MIC ([14]; 18 hours) of 0.12 µg/mL (≈ 0.323 µM) and an MIC ([15]; 18 hours) of 0.12 µg/mL (≈ 0.323 µM). For the same compound, the MIC ([16]; 18 hours) was 0.03 µg/mL (≈ 0.0808 µM), the MIC ([17]; 18 hours) was 4 µg/mL (≈ 10.8 µM) and the MIC ([18]; 18 hours) was 8 µg/mL (≈ 21.5 µM). For the same compound, the MIC ([19]; 18 hours) was 0.03 µg/mL (≈ 0.0808 µM), the MIC ([20]; 18 hours) was 0.015 µg/mL (≈ 0.0404 µM) and the MIC ([21]; 18 hours) was 4 µg/mL (≈ 10.8 µM). The MIC [22] was 2 µg/mL (≈ 5.38 µM), the MIC ([23]; 18 hours) was 2 µg/mL (≈ 5.38 µM) and the MIC ([24]; 18 hours) was 0.12 µg/mL (≈ 0.323 µM). It also gave an MIC ([25]; 18 hours) of 0.015 µg/mL (≈ 0.0404 µM), an MIC ([26]; 18 hours) of 2 µg/mL (≈ 5.38 µM) and an MIC ([27]; 18 hours) of 1 µg/mL (≈ 2.69 µM). For the same compound, the MIC ([28]; 18 hours) was 0.06 µg/mL (≈ 0.162 µM), the MIC ([29]; 18 hours) was 8 µg/mL (≈ 21.5 µM) and the MIC ([30]; 18 hours) was 0.03 µg/mL (≈ 0.0808 µM). For the same compound, the MIC ([31]; 18 hours) was 0.12 µg/mL (≈ 0.323 µM), the MIC ([32]; 18 hours) was 1 µg/mL (≈ 2.69 µM) and the MIC ([33]; 18 hours) was 0.5 µg/mL (≈ 1.35 µM). The MIC ([34]; 18 hours) was 0.25 µg/mL (≈ 0.673 µM), the MIC ([35]; 18 hours) was 2 µg/mL (≈ 5.38 µM) and the MIC ([36]; 18 hours) was 1 µg/mL (≈ 2.69 µM). For the same compound, the MIC ([37]; 18 hours) was 0.5 µg/mL (≈ 1.35 µM), the MIC [38] was 0.03 µg/mL (≈ 0.0808 µM) and the MIC [39] was < 0.015 µg/mL and 0.008 µg/mL.
In the case of CCn1cc(C(=O)O)c(=O)c2cc(F)c(N3CCNC(c4ccncc4)C3)c(F)c21 (centres unmarked) [Example 127], the MIC ([1]; Staphylococcus aureus, VGH8445, 18 h, read-out: MIC) is reported as 0.12 µg/mL (≈ 0.29 µM), the MIC ([2]; Escherichia coli, VGH8419, 18 h, read-out: MIC) is reported as 1 µg/mL (≈ 2.41 µM) and the MIC ([3]; Morganella morganii, CMC8438, 18 h, read-out: MIC) is reported as 2 µg/mL (≈ 4.83 µM). The MIC ([4]; Pseudomonas aeruginosa, LL1244, 18 h, read-out: MIC) was 16 µg/mL (≈ 38.6 µM), the MIC ([5]; Pseudomonas aeruginosa, CMC8320, 18 h, read-out: MIC) was over 16 µg/mL and the MIC ([6]; Staphylococcus aureus, 18 h, read-out: MIC) was 0.06 µg/mL (≈ 0.145 µM). The MIC ([7]; Klebsiella pneumoniae, MOR8424, 18 h, read-out: MIC) was 4 µg/mL (≈ 9.65 µM), the MIC [8] was 1 µg/mL (≈ 2.41 µM) and the MIC ([9]; Enterobacter cloacae, K8410, 18 h, read-out: MIC) was 2 µg/mL (≈ 4.83 µM). The MIC ([10]; Klebsiella pneumoniae, CMC8431, 18 h, read-out: MIC) was 2 µg/mL (≈ 4.83 µM), the MIC ([11]; Morganella morganii, CMC8437, 18 h, read-out: MIC) was 0.5 µg/mL (≈ 1.21 µM) and the MIC [12] was 0.5 µg/mL (≈ 1.21 µM). It also gave an MIC ([13]; Staphylococcus aureus, K8226, 18 h, read-out: MIC) of 8 µg/mL (≈ 19.3 µM), an MIC ([14]; Serratia marcescens, MOR8441, 18 h, read-out: MIC) of 4 µg/mL (≈ 9.65 µM) and an MIC ([15]; Providencia rettgeri, IO8321, 18 h, read-out: MIC) of 4 µg/mL (≈ 9.65 µM). The MIC ([16]; Enterobacter cloacae, VGH8439, 18 h, read-out: MIC) was 2 µg/mL (≈ 4.83 µM), the MIC ([17]; Pseudomonas aeruginosa, K8416, 18 h, read-out: MIC) was over 16 µg/mL and the MIC ([18]; Serratia marcescens, CMC8374, 18 h, read-out: MIC) was over 16 µg/mL. The MIC ([19]; Citrobacter, DIV.K8224, 18 h, read-out: MIC) was 2 µg/mL (≈ 4.83 µM), the MIC ([20]; Escherichia coli, MOR8420, 18 h, read-out: MIC) was 1 µg/mL (≈ 2.41 µM) and the MIC ([21]; Providencia, CMC833, 18 h, read-out: MIC) was over 16 µg/mL. The MIC [22] was 32 µg/mL (≈ 77.2 µM), the MIC ([23]; Enterococcus faecalis, UCI8519, 18 h, read-out: MIC) was 4 µg/mL (≈ 9.65 µM) and the MIC ([24]; Serratia marcescens, K8418, 18 h, read-out: MIC) was 1 µg/mL (≈ 2.41 µM). For the same compound, the MIC ([25]; Morganella morganii, MOR8445, 18 h, read-out: MIC) was 2 µg/mL (≈ 4.83 µM), the MIC ([26]; Enterococcus faecalis, UCI8530, 18 h, read-out: MIC) was 8 µg/mL (≈ 19.3 µM) and the MIC ([27]; Enterococcus faecalis, VGH8469, 18 h, read-out: MIC) was 4 µg/mL (≈ 9.65 µM). For the same compound, the MIC ([28]; Klebsiella pneumoniae, IO835, 18 h, read-out: MIC) was 4 µg/mL (≈ 9.65 µM), the MIC ([29]; Pseudomonas aeruginosa, VGH843, 18 h, read-out: MIC) was over 16 µg/mL and the MIC ([30]; Escherichia coli, CMC8450, 18 h, read-out: MIC) was 2 µg/mL (≈ 4.83 µM). For the same compound, the MIC ([31]; Morganella morganii, VHG8412, 18 h, read-out: MIC) was 4 µg/mL (≈ 9.65 µM), the MIC ([32]; Enterococcus faecalis, CMC83120, 18 h, read-out: MIC) was 4 µg/mL (≈ 9.65 µM) and the MIC ([33]; Enterobacter cloacae, MOR8430, 18 h, read-out: MIC) was 8 µg/mL (≈ 19.3 µM). It also gave an MIC ([34]; Staphylococcus aureus, VGH8447, 18 h, read-out: MIC) of 0.25 µg/mL (≈ 0.603 µM), an MIC ([35]; Pseudomonas aeruginosa, VGH844, 18 h, read-out: MIC) of 16 µg/mL (≈ 38.6 µM) and an MIC ([36]; Enterococcus faecalis, VGH8465, 18 h, read-out: MIC) of 2 µg/mL (≈ 4.83 µM). The MIC ([37]; Staphylococcus aureus, CMC83131, 18 h, read-out: MIC) was 0.5 µg/mL (≈ 1.21 µM) and the MIC [38] was 0.5 µg/mL (≈ 1.21 µM).
